Measured values taken from PubChem BioAssay (NCI).
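Abbreviation: GI50, concentration required for 50% inhibition of growth. The concentration for full growth arrest is given as TGI.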

Key:
Assay in all cases: growth of human tumour cells (NCI), 384-well format; in the data active = GI50 below about 0.43 µM; inactive = the rest
SF-295 CNS = test system: SF-295 CNS
ACHN renal = test system: ACHN renal
NCI-H226 lung = test system: NCI-H226 lung
U251 glioblastoma = test system: U251 glioblastoma
HCT-116 colon = test system: HCT-116 colon
HL-60(TB) leukemia = test system: HL-60(TB) leukemia
UACC-257 melanoma = test system: UACC-257 melanoma
SN12C renal = test system: SN12C renal
MOLT-4 leukemia = test system: MOLT-4 leukemia
HS 578T breast = test system: HS 578T breast
COLO 205 colon = test system: COLO 205 colon
OVCAR-4 ovarian = test system: OVCAR-4 ovarian
A549 NSCLC = test system: A549 NSCLC
EKVX NSCLC = test system: EKVX NSCLC
SK-MEL-28 melanoma = test system: SK-MEL-28 melanoma
NCI/ADR-RES ovarian = test system: NCI/ADR-RES ovarian
PC-3 prostate = test system: PC-3 prostate
SNB-75 CNS = test system: SNB-75 CNS
M14 melanoma = test system: M14 melanoma
BT-549 breast = test system: BT-549 breast
NCI-H322M lung = test system: NCI-H322M lung
CAKI-1 renal = test system: CAKI-1 renal
HT29 colon = test system: HT29 colon
HCT-15 colon = test system: HCT-15 colon
T-47D breast = test system: T-47D breast
NCI-H23 lung = test system: NCI-H23 lung
OVCAR-3 ovarian = test system: OVCAR-3 ovarian
SR leukemia = test system: SR leukemia
NCI-H522 lung = test system: NCI-H522 lung
MDA-MB-468 breast = test system: MDA-MB-468 breast
DU-145 prostate = test system: DU-145 prostate
NCI-H460 NSCLC = test system: NCI-H460 NSCLC
MDA-MB-435 melanoma = test system: MDA-MB-435 melanoma
HCC-2998 colon = test system: HCC-2998 colon
SF-268 CNS = test system: SF-268 CNS
RPMI-8226 leukemia = test system: RPMI-8226 leukemia
MDA-MB-231 breast = test system: MDA-MB-231 breast
UACC-62 melanoma = test system: UACC-62 melanoma
SK-MEL-5 melanoma = test system: SK-MEL-5 melanoma
A498 renal = test system: A498 renal
TK-10 renal = test system: TK-10 renal
LOX IMVI melanoma = test system: LOX IMVI melanoma
SK-OV-3 ovarian = test system: SK-OV-3 ovarian
HOP-62 NSCLC = test system: HOP-62 NSCLC
MCF7 breast = test system: MCF7 breast
IGROV1 ovarian = test system: IGROV1 ovarian
OVCAR-8 ovarian = test system: OVCAR-8 ovarian
KM12 colon = test system: KM12 colon
SNB-19 CNS = test system: SNB-19 CNS
MALME-3M melanoma = test system: MALME-3M melanoma
HOP-92 NSCLC = test system: HOP-92 NSCLC
SF-539 CNS = test system: SF-539 CNS
RXF 393 renal = test system: RXF 393 renal
OVCAR-5 ovarian = test system: OVCAR-5 ovarian

COC(=O)c1ccc2c(c1)nc(NC(=O)c1ccccc1)n2CCCc1ccccc1
31.6 µM: TGI (OVCAR-5 ovarian)
9.61 µM: TGI (NCI-H522 lung)
9.95 µM: TGI (UACC-257 melanoma)
20 µM: TGI (SNB-19 CNS)
2.16 µM: TGI (NCI/ADR-RES ovarian)
8.59 µM: TGI (NCI-H322M lung)
15.9 µM: TGI (A498 renal)
> 100 µM: TGI (SF-295 CNS) | TGI (HCT-116 colon) | TGI (HS 578T breast) | TGI (A549 NSCLC) | TGI (EKVX NSCLC) | TGI (SK-MEL-28 melanoma) | TGI (PC-3 prostate) | TGI (CAKI-1 renal) | TGI (HT29 colon) | TGI (T-47D breast) | TGI (NCI-H23 lung) | TGI (MDA-MB-468 breast) | TGI (MDA-MB-435 melanoma) | TGI (HCC-2998 colon) | TGI (SF-268 CNS) | TGI (MDA-MB-231 breast) | TGI (UACC-62 melanoma) | TGI (SK-OV-3 ovarian) | TGI (MCF7 breast) | TGI (IGROV1 ovarian) | TGI (KM12 colon) | TGI (MALME-3M melanoma) | TGI (HOP-92 NSCLC) | TGI (RXF 393 renal)
3.55 µM: TGI (HOP-62 NSCLC)
34.5 µM: TGI (TK-10 renal)
31.7 µM: TGI (ACHN renal)
inactive: GI50 (SF-295 CNS) 3.11 µM | GI50 (ACHN renal) 3.99 µM | GI50 (NCI-H226 lung) 3.41 µM | GI50 (U251 glioblastoma) 0.673 µM | GI50 (HCT-116 colon) 0.852 µM | GI50 (UACC-257 melanoma) 2.32 µM | GI50 (SN12C renal) 2.38 µM | GI50 (HS 578T breast) 6.95 µM | GI50 (COLO 205 colon) 2.04 µM | GI50 (OVCAR-4 ovarian) 11.5 µM | GI50 (A549 NSCLC) 3.61 µM | GI50 (EKVX NSCLC) 1.46 µM | GI50 (SK-MEL-28 melanoma) 3.12 µM | GI50 (NCI/ADR-RES ovarian) 0.458 µM | GI50 (PC-3 prostate) 4.95 µM | GI50 (SNB-75 CNS) 3.91 µM | GI50 (M14 melanoma) 0.519 µM | GI50 (BT-549 breast) 0.741 µM | GI50 (NCI-H322M lung) 0.884 µM | GI50 (CAKI-1 renal) 6.36 µM | GI50 (HT29 colon) 2.72 µM | GI50 (HCT-15 colon) 0.478 µM | GI50 (T-47D breast) 4.13 µM | GI50 (NCI-H23 lung) 1.86 µM | GI50 (OVCAR-3 ovarian) 1.84 µM | GI50 (NCI-H522 lung) 1.49 µM | GI50 (MDA-MB-468 breast) 2.19 µM | GI50 (DU-145 prostate) 1.77 µM | GI50 (MDA-MB-435 melanoma) 4.03 µM | GI50 (HCC-2998 colon) 1.85 µM | GI50 (SF-268 CNS) 1.81 µM | GI50 (RPMI-8226 leukemia) 1.5 µM | GI50 (MDA-MB-231 breast) 7.06 µM | GI50 (UACC-62 melanoma) 2.45 µM | GI50 (A498 renal) 2.08 µM | GI50 (TK-10 renal) 2.63 µM | GI50 (LOX IMVI melanoma) 0.946 µM | GI50 (SK-OV-3 ovarian) 0.973 µM | GI50 (HOP-62 NSCLC) 0.469 µM | GI50 (MCF7 breast) 1.65 µM | GI50 (IGROV1 ovarian) 2.04 µM | GI50 (OVCAR-8 ovarian) 1.58 µM | GI50 (KM12 colon) 2.33 µM | GI50 (SNB-19 CNS) 2.21 µM | GI50 (MALME-3M melanoma) 2.9 µM | GI50 (HOP-92 NSCLC) 3.93 µM | GI50 (SF-539 CNS) 2.13 µM | GI50 (RXF 393 renal) 3.11 µM | GI50 (OVCAR-5 ovarian) 3.94 µM
3.05 µM: TGI (M14 melanoma)
65.9 µM: TGI (OVCAR-4 ovarian)
69.4 µM: TGI (OVCAR-3 ovarian)
24.4 µM: TGI (DU-145 prostate)
1.14 µM: TGI (NCI-H460 NSCLC)
1.75 µM: TGI (HL-60(TB) leukemia)
11.3 µM: TGI (U251 glioblastoma)
4 µM: TGI (HCT-15 colon)
18 µM: TGI (SF-539 CNS)
66.8 µM: TGI (SNB-75 CNS)
8.75 µM: TGI (SN12C renal)
1.67 µM: TGI (SK-MEL-5 melanoma)
5.78 µM: TGI (COLO 205 colon)
48.9 µM: TGI (NCI-H226 lung)
6.46 µM: TGI (BT-549 breast)
active: GI50 (HL-60(TB) leukemia) 0.413 µM | GI50 (MOLT-4 leukemia) 0.222 µM | GI50 (SR leukemia) 0.203 µM | GI50 (NCI-H460 NSCLC) 0.342 µM | GI50 (SK-MEL-5 melanoma) 0.395 µM
0.44 µM: TGI (SR leukemia)
5.25 µM: TGI (OVCAR-8 ovarian)
2.81 µM: TGI (LOX IMVI melanoma)
4.6 µM: TGI (RPMI-8226 leukemia)
0.413 µM: TGI (MOLT-4 leukemia)
